# ChEMBL document CHEMBL1132837, “3-(4-Piperidinyl)- and 3-(8-aza-bicyclo[3.2.1]oct-3-yl)-2-phenyl-1H-indoles as bioavailable h5-HT2A antagonists” (Bioorg Med Chem Lett, 2000)
# Key:
# [1] = target: 5-hydroxytryptamine receptor 2A (Homo sapiens, UniProt P28223); assay: Displacement of [3H]ketanserin from human 5-hydroxytryptamine 2A receptor expressed in CHO cells; assay type: cell-based
# [2] = target: Dopamine D2 receptor and serotonin 2a receptor (Homo sapiens) (UniProt P14416+P28223); assay: Selectivity as ratio of Ki against human dopamine D2 and 5-HT2A receptors; assay type: protein assay
# Sequence of Dopamine D2 receptor and serotonin 2a receptor (Homo sapiens) (P14416 whole entry, looked up): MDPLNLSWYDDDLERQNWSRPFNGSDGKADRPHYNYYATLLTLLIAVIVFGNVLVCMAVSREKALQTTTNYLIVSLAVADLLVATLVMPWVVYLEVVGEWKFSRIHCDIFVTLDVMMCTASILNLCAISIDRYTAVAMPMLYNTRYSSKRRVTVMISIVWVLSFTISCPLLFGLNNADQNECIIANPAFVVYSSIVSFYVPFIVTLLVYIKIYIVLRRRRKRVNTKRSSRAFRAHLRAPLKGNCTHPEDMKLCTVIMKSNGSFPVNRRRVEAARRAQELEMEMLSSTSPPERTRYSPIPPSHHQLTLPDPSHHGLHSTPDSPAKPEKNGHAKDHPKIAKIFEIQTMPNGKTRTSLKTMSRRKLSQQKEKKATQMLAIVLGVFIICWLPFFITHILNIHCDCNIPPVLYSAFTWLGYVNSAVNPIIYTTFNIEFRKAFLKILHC
# Sequence of Dopamine D2 receptor and serotonin 2a receptor (Homo sapiens) (P28223 whole entry, looked up): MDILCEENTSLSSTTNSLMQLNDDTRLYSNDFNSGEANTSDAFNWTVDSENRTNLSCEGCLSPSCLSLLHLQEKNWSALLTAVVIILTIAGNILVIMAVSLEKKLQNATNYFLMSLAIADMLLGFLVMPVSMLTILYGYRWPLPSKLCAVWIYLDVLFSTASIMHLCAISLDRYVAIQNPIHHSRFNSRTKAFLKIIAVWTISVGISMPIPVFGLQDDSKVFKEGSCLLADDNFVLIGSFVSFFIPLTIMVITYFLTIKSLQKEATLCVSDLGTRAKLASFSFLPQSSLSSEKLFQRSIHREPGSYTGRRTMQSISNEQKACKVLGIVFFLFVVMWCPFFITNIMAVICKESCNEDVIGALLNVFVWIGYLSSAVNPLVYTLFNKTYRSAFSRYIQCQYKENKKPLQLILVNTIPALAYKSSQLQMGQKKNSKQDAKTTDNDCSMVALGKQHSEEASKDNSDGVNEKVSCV
# [3] = target: Serotonin 2 receptors; 5-HT2a & 5-HT2c (Homo sapiens) (UniProt P28223+P28335); assay: Selectivity as ratio of Ki against human 5-HT2C and 5-HT2A receptors; assay type: protein assay
# Sequence of Serotonin 2 receptors; 5-HT2a & 5-HT2c (Homo sapiens) (P28223 whole entry, looked up): as above
# Sequence of Serotonin 2 receptors; 5-HT2a & 5-HT2c (Homo sapiens) (P28335 whole entry, looked up): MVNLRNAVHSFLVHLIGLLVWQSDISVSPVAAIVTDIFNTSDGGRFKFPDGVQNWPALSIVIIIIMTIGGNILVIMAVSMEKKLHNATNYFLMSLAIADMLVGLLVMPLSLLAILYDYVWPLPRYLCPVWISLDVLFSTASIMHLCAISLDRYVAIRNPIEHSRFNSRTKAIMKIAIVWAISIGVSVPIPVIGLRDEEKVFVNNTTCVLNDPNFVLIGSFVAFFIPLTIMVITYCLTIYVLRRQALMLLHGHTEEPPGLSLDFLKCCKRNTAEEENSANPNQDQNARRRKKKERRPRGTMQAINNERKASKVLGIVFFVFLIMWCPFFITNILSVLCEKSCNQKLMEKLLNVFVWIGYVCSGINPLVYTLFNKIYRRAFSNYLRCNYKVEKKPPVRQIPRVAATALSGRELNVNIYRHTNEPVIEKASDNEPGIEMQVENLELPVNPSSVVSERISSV
# [4] = Oral bioavailability in rat; assay type: ADME, organism-based; conditions: in vivo
# [5] = Oral bioavailability was determined in dogs; assay type: ADME, organism-based, Canis lupus familiaris; conditions: dog, in vivo, read-out: Bioavailabiility
# Sequence of 5-hydroxytryptamine receptor 2A (P28223 whole entry): as the sequence (P28223 whole entry, looked up) above
bioavailability [5],SMILES,Ki [1],Ratio [2],Ratio [3],bioavailability [4]
,CN1CCC(c2c(-c3ccccc3)[nH]c3ccccc23)CC1,7.8 nM,205,30,
,c1ccc(-c2[nH]c3ccccc3c2C2CCNCC2)cc1,12.1 nM,130,30,
,c1ccc(CN2CCC(c3c(-c4ccccc4)[nH]c4ccccc34)CC2)cc1,28 nM,2,30,
,c1ccc(CCN2C3CCC2CC(N2CCC(c4c(-c5ccccc5)[nH]c5ccccc45)CC2)C3)cc1 (stereo in doubt; 18) [listing 1 of 2 here],,170,60,
,CN1[C@@H]2CC[C@H]1C[C@H](N1CCC(c3c(-c4ccccc4)[nH]c4ccccc34)CC1)C2 (stereo in doubt; 15) [listing 1 of 2 here],1.5 nM,,,
,c1ccc(-c2[nH]c3ccccc3c2CCN2CCCCC2)cc1,,330,100,< 5%
,CN1[C@@H]2CC[C@H]1C[C@H](N1CCC(c3c(-c4ccccc4)[nH]c4ccccc34)CC1)C2 (stereo in doubt; 15) [listing 2 of 2 here],,960,45,
,c1ccc(CCN2C3CCC2CC(N2CCC(c4c(-c5ccccc5)[nH]c5ccccc45)CC2)C3)cc1 (stereo in doubt; 17) [listing 1 of 2 here],1.2 nM,,,18%
,CN1[C@@H]2CC[C@H]1C[C@H](N1CCC(c3c(-c4ccccc4)[nH]c4ccccc34)CC1)C2 (stereo in doubt; 13) [listing 1 of 2 here],,1190,70,
,CN1[C@@H]2CC[C@H]1C[C@H](N1CCC(c3c(-c4ccccc4)[nH]c4ccccc34)CC1)C2 (stereo in doubt; 13) [listing 2 of 2 here],1.1 nM,,,
,c1ccc(CCN2C3CCC2CC(N2CCC(c4c(-c5ccccc5)[nH]c5ccccc45)CC2)C3)cc1 (stereo in doubt; 17) [listing 2 of 2 here],,1080,860,
33%,O=C1NCCN1CCN1CCC(c2c(-c3ccccc3)[nH]c3ccccc23)CC1,7.3 nM,250,160,40%
,c1ccc(-c2[nH]c3ccccc3c2C2CC3CCC(C2)N3)cc1 (configuration not stated),1.8 nM,1060,200,
,c1ccc(CCN2C3CCC2CC(N2CCC(c4c(-c5ccccc5)[nH]c5ccccc45)CC2)C3)cc1 (stereo in doubt; 18) [listing 2 of 2 here],2.6 nM,,,
,c1ccc(CCN2CCC(c3c(-c4ccccc4)[nH]c4ccccc34)CC2)cc1,0.5 nM,690,160,12%
